We go through 19 molecules from patent US8574563B2 (Bristol-Myers Squibb Company, priority 2006, dated 2013).

Where two headings read alike, the source gives them in different places.

The assay has as its system HCV 1b-377-neo replicon cells. The assay is described as follows: HCV replicon assay, HCV 1b-377-neo replicon cells (1b FRET). Format: cell-based, Hepatitis C virus genotype 1b. The settings on record: HCV 1b-377-neo replicon cells, HCV 1b genotype, read-out: EC50 range against HCV 1b (Table 2, Range). As for the experimental part:
An HCV Replion assay was utilized in the present disclosure, and was prepared, conducted and validated as described in commonly owned PCT/US2006/022197 and in O'Boyle et. al. Antimicrob Agents Chemother. 2005 April; 49(4):1346-53.
HCV 1b-377-neo replicon cells were used to test the currently described compound series as well as cells resistant to compound A due to a Y2065H mutation in NS5A (described in application PCT/US2006/022197). The compounds tested were determined to have more than 10-fold less inhibitory activity on cells resistant to compound A than wild-type cells indicating a related mechanism of action between the two compound series. Thus, the compounds of the present disclosure can be effective to inhibit the function of the HCV NS5A protein and are understood to be as effective in combinations as previously described in application PCT/US2006/022197 and commonly owned WO/04014852. Further, the compounds of the present disclosure can be effective against the HCV 1b genotype. It should also be understood that the compounds of the present disclosure can inhibit multiple genotypes of HCV. […] In one embodiment compounds of the present disclosure are active against the 1a, 1b, 2a, 2b, 3a, 4a, and 5a genotypes.
On the technique in general: Replicon systems follow genome replication, usually without infectious particles.

What is called EC50 is the concentration at which the effect is half-maximal. For the molecule `COC(=O)N[C@H](C(=O)N1CCCC1c1ncc(-c2ccc(-c3ccc(-c4cnc([C@]5(C)CCCN5C(=O)[C@@H](NC(=O)OC)[C@@H](C)OC)[nH]4)cc3)cc2)[nH]1)[C@@H](C)OC` (stereo partly shown), for the setting “Hepatitis C virus”, the EC50 fell in the range of 0.001 to 0.999 nM.

Take `COC(=O)N[C@H](C(=O)N1CCC[C@H]1c1ncc(-c2ccc(-c3ccc(-c4cnc([C@@H]5CCCN5C(=O)[C@@H](Nc5n[nH]c(N)n5)C(C)C)[nH]4)cc3)cc2)[nH]1)C(C)C`: for the setting “Hepatitis C virus”, the EC50 was 0.001 to 0.999 nM.

Turning to `CCN(CC)[C@@H](C(=O)N1CCC[C@H]1c1ncc(-c2ccc(-c3ccc(-c4cnc([C@@H]5CC(F)(F)CN5C(=O)[C@@H](c5ccccc5)N(CC)CC)[nH]4)cc3)cc2)[nH]1)c1ccccc1` (mixture of isomers) [OL-13, rac-(1R)-2-((2S)-2-(4-(4′-(2-((2S)-1-((2R)-2-(diethylamino)-2-phenylacetyl)-4,4-difluoro-2-pyrrolidinyl)-1H-imidazol-4-yl)-4-biphenylyl)-1H-imidazol-2-yl)-1-pyrrolidinyl)-N,N-diethyl-2-oxo-1-phenylethanamine], the EC50 (Hepatitis C virus) is 0.001 to 0.999 nM.

As to `CN(C)C(C(=O)N1CCC[C@H]1c1nc(-c2ccc(-c3ccc(-c4cnc([C@@H]5CC6CCCCC6N5C(=O)[C@@H](c5ccccc5)N(C)C)[nH]4)cc3)cc2)c[nH]1)c1ccccc1` (relative stereo) [Example F7, rel-(1R)-2-((2S)-2-(4-(4′-(2-((2S)-1-((2R)-2-(dimethylamino)-2-phenylacetyl)octahydro-1H-indol-2-yl)-1H-imidazol-5-yl)-4-biphenylyl)-1H-imidazol-2-yl)-1-pyrrolidinyl)-N,N-dimethyl-2-oxo-1-phenylethanamine], under “Hepatitis C virus”, the EC50 lay within 0.001 to 0.999 nM.

Consider `COC(=O)N[C@@H](C(=O)N1CCC[C@H]1c1nc(-c2ccc(-c3ccc(-c4cnc([C@@H]5CC6CCCCC6N5C(=O)[C@H](NC(=O)OC)c5ccccc5)[nH]4)cc3)cc2)c[nH]1)c1ccccc1` (relative stereo) [Example F8, methyl rel-((1R)-2-((2S)-2-(4-(4′-(2-((2S)-1-((2R)-2-((methoxycarbonyl)amino)-2-phenylacetyl)octahydro-1H-indol-2-yl)-1H-imidazol-5-yl)-4-biphenylyl)-1H-imidazol-2-yl)-1-pyrrolidinyl)-2-oxo-1-phenylethyl)carbamate], for which the half-maximal effective concentration (EC50) (Hepatitis C virus) was 0.001 to 0.999 nM.

As for `CN(C)[C@@H](C(=O)N1CCC[C@H]1c1nc(-c2ccc(-c3ccc(-c4cn(C)c([C@@H]5CCCN5C(=O)[C@@H](c5ccccc5)N(C)C)n4)cc3)cc2)cn1C)c1ccccc1` (single isomer, unassigned) [151 isomer 1], the half-maximal effective concentration (EC50) lay within 1 to 99 nM.

As for `CN(C)[C@@H](C(=O)N1CCC[C@H]1c1nc(-c2ccc(-c3ccc(-c4cn(C)c([C@@H]5CCCN5C(=O)[C@@H](c5ccccc5)N(C)C)n4)cc3)cc2)cn1C)c1ccccc1` (single isomer, unassigned) [151 isomer 2], the 50% effective concentration (EC50) was in the range of 100 to 999 nM.

For `O=C(OCc1ccccc1)N1CCN(C(C(=O)N2CCC[C@H]2c2ncc(-c3ccc(-c4ccc(-c5c[nH]c([C@@H]6CCCN6C(=O)[C@H]6CCCO6)n5)cc4)cc3)[nH]2)c2ccccc2)CC1` (single isomer, unassigned) [Example 103-5], the half-maximal effective concentration (EC50) lay in the range of 0.001 to 0.999 nM.

`O=C(OCc1ccccc1)N1CCN(C(C(=O)N2CCC[C@H]2c2ncc(-c3ccc(-c4ccc(-c5c[nH]c([C@@H]6CCCN6C(=O)[C@H]6CCCO6)n5)cc4)cc3)[nH]2)c2ccccc2)CC1` (single isomer, unassigned) [Example 103-6]: the EC50 is 1 to 99 nM.

Regarding `CC(=O)OC(C(=O)N1CCC[C@H]1c1ncc(-c2ccc(-c3ccc(-c4cnc([C@@H]5CCCN5C(=O)[C@@H](c5ccccc5)N5CCCCC5)[nH]4)cc3)cc2)[nH]1)c1ccccc1` (stereo in doubt) [Example 107-1, (1S)-2-oxo-1-phenyl-2-((2S)-2-(5-(4′-(2-((2S)-1-((2R)-2-phenyl-2-(1-piperidinyl)acetyl)-2-pyrrolidinyl)-1H-imidazol-5-yl)-4-biphenylyl)-1H-imidazol-2-yl)-1-pyrrolidinyl) ethyl acetate], the EC50 (Hepatitis C virus) was 0.001 to 0.999 nM.

For `CC(=O)OC(C(=O)N1CCC[C@H]1c1ncc(-c2ccc(-c3ccc(-c4cnc([C@@H]5CCCN5C(=O)[C@@H](c5ccccc5)N5CCCCC5)[nH]4)cc3)cc2)[nH]1)c1ccccc1` (stereo in doubt) [Example 107-21, (1R)-2-oxo-1-phenyl-2-((2S)-2-(5-(4′-(2-((2S)-1-((2R)-2-phenyl-2-(1-piperidinyl)acetyl)-2-pyrrolidinyl)-1H-imidazol-5-yl)-4-biphenylyl)-1H-imidazol-2-yl)-1-pyrrolidinyl)ethyl acetate], the EC50 (Hepatitis C virus) lay in the range of 0.001 to 0.999 nM.

Consider `CC(=O)OC(C(=O)N1CCC[C@H]1c1ncc(-c2ccc(-c3ccc(-c4cnc([C@@H]5CCCN5C(=O)[C@@H](c5ccccc5F)N(C)C)[nH]4)cc3)cc2)[nH]1)c1ccccc1` (stereo in doubt) [Example 107-33, (1R)-2-((2S)-2-(5-(4′-(2-((2S)-1-((2R)-2-(dimethylamino)-2-(2-fluorophenyl)acetyl)-2-pyrrolidinyl)-1H-imidazol-5-yl)-4-biphenylyl)-1H-imidazol-2-yl)-1-pyrrolidinyl)-2-oxo-1-phenylethyl acetate], for which the EC50 (Hepatitis C virus) was in the range of 0.001 to 0.999 nM.

For `COC(=O)NC(C(=O)N1CCC[C@H]1c1ncc(-c2ccc(-c3ccc(-c4cnc([C@@H]5CCCN5C(=O)[C@@H](NC(=O)OC)C(C)C)[nH]4)cc3)cc2F)[nH]1)[C@@H](C)OC` (stereo in doubt) [Example D42, methyl ((1S,2R)-1-(((2S)-2-(5-(3-fluoro-4′-(2-((2S)-1-(N-(methoxycarbonyl)-L-valyl)-2-pyrrolidinyl)-1H-imidazol-5-yl)-4-biphenylyl)-1H-imidazol-2-yl)-1-pyrrolidinyl)carbonyl)-2-methoxypropyl) carbamate], for the setting “Hepatitis C virus”, the EC50 fell in the range of 0.001 to 0.999 nM.

Consider `COC(=O)N[C@H](C(=O)N1CCC[C@H]1c1ncc(-c2ccc(-c3ccc(-c4cnc([C@@H]5CCCN5C(=O)[C@@H](NC(=O)OC)C(C)OC)[nH]4)c(F)c3)cc2F)[nH]1)C(C)C` (stereo in doubt) [Example D56, methyl ((1S,2R)-1-(((2S)-2-(5-(3,3′-difluoro-4′-(2-((2S)-1-(N-(methoxycarbonyl)-L-valyl)-2-pyrrolidinyl)-1H-imidazol-5-yl)-4-biphenylyl)-1H-imidazol-2-yl)-1-pyrrolidinyl)carbonyl)-2-methoxypropyl) carbamate], for which the concentration giving a half-maximal response (EC50) (Hepatitis C virus) is 0.001 to 0.999 nM.

Regarding `COC(=O)N[C@H](C(=O)N1CCC[C@H]1c1ncc(-c2ccc(-c3ccc(-c4nc([C@@H]5CCCN5C(=O)[C@@H](NC(=O)OC)[C@@H](C)OC)[nH]c4C)cc3)cc2)[nH]1)C(C)OC` (stereo in doubt) [Example E5f, methyl ((1S,2R)-2-methoxy-1-(((2S)-2-(4-(4′-(2-((2S)-1-(N-(methoxycarbonyl)-O-methyl-L-threonyl)-2-pyrrolidinyl)-4-methyl-1H-imidazol-5-yl)-4-biphenylyl)-1H-imidazol-2-yl)-1-pyrrolidinyl)carbonyl)propyl)carbamate], where the note is “Hepatitis C virus”, the EC50 was 0.001 to 0.999 nM.

As for `COC(=O)N[C@H](C(=O)N1CCC[C@H]1c1nc(C)c(-c2ccc(-c3ccc(-c4nc([C@@H]5CCCN5C(=O)[C@@H](NC(=O)OC)[C@@H](C)OC)[nH]c4C)cc3)cc2)[nH]1)C(C)OC` (stereo in doubt) [Example E5m, methyl ((1S,2R)-2-methoxy-1-(((2S)-2-(4-(4′-(2-((2S)-1-(N-(methoxycarbonyl)-O-methyl-L-threonyl)-2-pyrrolidinyl)-5-methyl-1H-imidazol-4-yl)-4-biphenylyl)-5-methyl-1H-imidazol-2-yl)-1-pyrrolidinyl)carbonyl)propyl)carbamate], the EC50 (Hepatitis C virus) lay in the range of 0.001 to 0.999 nM.

As for `CCN(CC)C(C)C(=O)N1CCC[C@H]1c1nc(C(F)(F)F)c(-c2ccc(-c3ncc(-c4cnc([C@@H]5CCCN5C(=O)[C@@H](C)N(CC)CC)[nH]4)cn3)cc2)[nH]1` (stereo in doubt) [Example J51, (2R)-1-((2S)-2-(5-(4-(5-(2-((2S)-1-((2R)-2-(diethylamino)propanoyl)-2-pyrrolidinyl)-1H-imidazol-5-yl)-2-pyrimidinyl)phenyl)-4-(trifluoromethyl)-1H-imidazol-2-yl)-1-pyrrolidinyl)-N,N-diethyl-1-oxo-2-propanamine], the EC50 (Hepatitis C virus) fell in the range of 1 to 99 nM.

Consider `CC(=O)N1[C@@H](C)CC[C@H]1c1ncc(-c2ccc(-c3ccc(-c4cnc([C@@H]5CC[C@H](C)N5C(C)=O)[nH]4)cc3)cc2)[nH]1` (stereo in doubt) [Example M162, 2-((2S,5S)-1-acetyl-5-methyl-2-pyrrolidinyl)-4-(4′-(2-((2S,5S)-1-acetyl-5-methyl-2-pyrrolidinyl)-1H-imidazol-5-yl)-4-biphenylyl)-1H-imidazole], for which, where the note is “Hepatitis C virus”, the EC50 was in the range of 1 to 99 nM.

Turning to `CCN(CC)[C@@H](C(=O)N1CCC[C@H]1c1ncc(-c2ccc(-c3ccc(-c4cnc([C@@H]5CCCN5C(=O)CC(Cc5ccccc5F)NC(=O)OC)[nH]4)cc3)cc2)[nH]1)c1ccccc1` (stereo in doubt) [cj-59, methyl ((1S)-3-((2S)-2-(5-(4′-(2-((2S)-1-((2R)-2-(diethylamino)-2-phenylacetyl)-2-pyrrolidinyl)-1H-imidazol-5-yl)-4-biphenylyl)-1H-imidazol-2-yl)-1-pyrrolidinyl)-1-(2-fluorobenzyl)-3-oxopropyl)carbamate], the EC50 (Hepatitis C virus) fell in the range of 0.001 to 0.999 nM.
